According to publication PMC9228270, “Design, Synthesis, In Silico Studies and Inhibitory Activity towards Bcr-Abl, BTK and FLT3-ITD of New 2,6,9-Trisubstituted Purine Derivatives as Potential Agents for the Treatment of Leukaemia” (Pharmaceutics, 2022):
Several values for one entry are separate records, joined by “and”; a condition that tells them apart may be missing. Equal values may be shown once.

Experiments:
FLT3-ITD [1] = target: T1, FLT3-ITD (Homo sapiens, UniProt P36888); design: method as in PMID 29672049; details: cited from earlier work
T1 sequence (P36888 27-993): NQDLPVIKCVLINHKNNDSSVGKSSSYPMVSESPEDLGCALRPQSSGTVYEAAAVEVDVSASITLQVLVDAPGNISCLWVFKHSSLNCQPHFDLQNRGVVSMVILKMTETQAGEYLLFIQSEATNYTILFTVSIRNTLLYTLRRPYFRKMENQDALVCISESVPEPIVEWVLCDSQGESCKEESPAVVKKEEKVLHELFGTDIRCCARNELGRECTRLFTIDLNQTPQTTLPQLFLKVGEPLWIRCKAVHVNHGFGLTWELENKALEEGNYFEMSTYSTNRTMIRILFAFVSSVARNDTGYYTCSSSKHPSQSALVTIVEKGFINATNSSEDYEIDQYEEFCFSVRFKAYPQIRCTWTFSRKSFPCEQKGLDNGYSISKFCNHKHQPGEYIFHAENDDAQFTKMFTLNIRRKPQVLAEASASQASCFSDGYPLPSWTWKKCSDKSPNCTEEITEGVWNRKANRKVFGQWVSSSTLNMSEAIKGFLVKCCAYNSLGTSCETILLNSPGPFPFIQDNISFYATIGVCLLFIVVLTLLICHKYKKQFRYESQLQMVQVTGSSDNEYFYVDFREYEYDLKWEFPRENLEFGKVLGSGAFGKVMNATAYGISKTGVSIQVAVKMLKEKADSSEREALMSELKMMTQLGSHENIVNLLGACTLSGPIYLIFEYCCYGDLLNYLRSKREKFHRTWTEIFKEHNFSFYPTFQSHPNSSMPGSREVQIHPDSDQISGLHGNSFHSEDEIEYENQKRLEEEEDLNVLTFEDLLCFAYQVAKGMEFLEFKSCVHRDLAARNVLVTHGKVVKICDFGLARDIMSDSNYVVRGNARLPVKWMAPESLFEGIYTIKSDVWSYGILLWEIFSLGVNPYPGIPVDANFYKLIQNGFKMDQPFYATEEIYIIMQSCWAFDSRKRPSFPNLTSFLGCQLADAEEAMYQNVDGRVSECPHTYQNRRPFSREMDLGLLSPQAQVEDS

Bcr-Abl1 = Bcr-Abl1 (Homo sapiens, UniProt P00519); assay: Recombinant kinase radioassay, Abl; assay type: biochemical; details: ATP 1 µM, at least three independent experiments, range 0.01–100 µM
Method: (§1) Recombinant kinase inhibition was measured using standard radioassay. Bcr-Abl1 and Cdk-2/cyclin E kinases were produced in-house, FLT3-ITD and BTK were purchased from ProQinase. The kinases were assayed with suitable substrates (500 µM peptide […] for Abl, 1 mg/mL histone H1 for Cdk-2, 100 µM poly (Glu:Tyr; 4:1)) in the presence of ATP (1 µM for Bcr-Abl, 15 µM for Cdk-2 and BTK), 0.05 µCi [γ-^33P]ATP and the test compound in reaction buffer (60 mM HEPES-NaOH, pH 7.5, 3 mM MgCl2, 3 mM MnCl2, 3 µM Na orthovanadate, 1.2 mM DTT, 2.5 µg/50 µL PEG20.000). The reactions were stopped by adding 3% aq. H3PO4. P-81 phosphocellulose (Whatman) was used to separate phosphorylated substrates. Kinase activity was quantified using a FLA-7000 digital image analyser.

K562 cells = assay: Flow cytometry cell cycle, K562; assay type: cell-based; details: 24 h, sub-micromolar concentrations
Method: (§2) Cell cycle effects were measured using flow cytometric determination of DNA content. MV4-11 and K562 cells were treated with tested compounds for 24 h. After the staining with propidium iodide, the DNA content was analysed by flow cytometry using a 488 nm laser (BD FACS Verse with software BD FACSuite^TM, version 1.0.6.). The cell cycle distribution was analysed using ModFit LT (Verity Software House 5.0, Topsham, ME, USA).

Ramos = assay: Cytotoxicity assay (resazurin), Ramos; assay type: cell-based; details: Homo sapiens, 72 h, three independent experiments, range 0.1 to 25 µM
Method: (§3) Cytotoxicity assays for the purines were quantified using the resazurin method, a dye to measure redox reactions occurring in the mitochondria of live cells. The cells were treated by tested compounds (in triplicate, six different doses) for 72 h.

[2] = system: Bcr-Abl signalling in K562 cells; assay: Immunoblotting of Bcr-Abl downstream signalling in K562; assay type: cell-based; details: 4 h
Method: (§4) Protein changes in the treated cells were analysed using immunoblotting. Briefly, cell lysates were separated on SDS-polyacrylamide gels and electroblotted onto nitrocellulose membranes. After blocking, overnight incubation with specific primary antibodies and incubation with peroxidase-conjugated secondary antibodies, the peroxidase activity was detected with Super-Signal West Pico reagents (Thermo Scientific, Waltham, MA, USA) using a CCD camera LAS-4000 (Fujifilm). The following specific antibodies were purchased from Cell Signalling: anti-FLT3 (clone 8F2), anti-phospho-FLT3 Y589/591 (clone 30D4), anti-STAT5 (clone D2O6Y), anti-phospho-STAT5 Y694, anti-ERK1/2, anti-phospho-ERK1/2 T202/Y204, anti-Akt (clone C67E7), anti-phospho-Akt S473 (clone D9E), anti-phospho-Bcr Y177, anti-CrkL (clone 32H4), anti-phospho-CrkL Y207, anti-BTK (clone C82B8), anti-phospho-BTK Y223, anti-PLCγ2, anti-phospho-PLCγ2 Y1217, and anti-PARP-1 (clone 46D11). Anti-α-tubulin (clone DM1A) was purchased from Sigma Aldrich.
(§5) Based on their inhibitory effects on recombinant kinases as well as cytotoxic effects in relevant cell line models, the purine derivatives 4i, 5b and 5j were selected for further experiments to confirm the expected molecular mechanism of action. The candidate compounds were tested to determine changes in signalling pathways downstream of the oncogenic kinases in cells. […]

MV4-11 = assay: Cytotoxicity assay (resazurin), MV4-11; assay type: cell-based; details: Homo sapiens, 72 h, three independent experiments, range 0.1 to 25 µM
Method: as §3

CEM = assay: Cytotoxicity assay (resazurin), CEM; assay type: cell-based; details: Homo sapiens, CCRF-CEM, 72 h, three independent experiments, range 0.1 to 25 µM
Method: as §3

[3] = system: caspase 3/7 activity in K562 cells; assay: Caspase-3/7 assay, K562; assay type: cell-based; details: 24 h, at 1 µM
Method: (§6) MV4-11 and K562 cells were kept in a 96-well plate were treated with increasing concentrations of compound 4i and 5b for 24 h. After this period, caspase-3/7 assay buffer (150 mM HEPES pH 7.4, 450 mM NaCl, 150 mM KCl, 30 mM MgCl2, 1.2 mM EGTA, 1.5% Nonidet P40, 0.3% CHAPS, 30% sucrose, 30 mM DTT, and 3 mM PMSF) containing 150 µM peptide substrate Ac-DEVD-AMC (Enzo Life Sciences, Farmingdale, NY, USA) was added, and after 2 h incubation, the fluorescence of AMC was measured using a Fluoroskan Ascent microplate reader (Labsystems) at 346 nm/442 nm (excitation/emission).

Cdk-2/cyclin E = target: T2, Cdk-2/cyclin E (Homo sapiens, UniProt P24941); assay: Recombinant kinase radioassay, Cdk-2/cyclin E; assay type: biochemical; details: ATP 15 µM, at least three independent experiments, range 0.01–100 µM
T2 construct: made in house
Method: as §1

K562 = assay: Cytotoxicity assay (resazurin), K562; assay type: cell-based; details: Homo sapiens, 72 h, three independent experiments, range 0.1 to 25 µM
Method: as §3

PARP-1 cleavage in K562 = assay: Immunoblotting of PARP-1 cleavage, K562; assay type: cell-based; details: K562 cells, 4 h
Method: as §4, with “Anti-α-tubulin (clone DM1A) was purchased from Sigma Aldrich.” left out
(§7) Finally, we analysed the mechanism of cell death induced by the prepared compounds 4i and 5b. Proteolytic cleavage of PARP-1—a well-established protein involved in apoptosis—was analysed in K562 and MV4-11 treated with respective compounds for 4 h. […] The PARP-1 fragment was not detected in MV4-11 cells treated with 5b because the compound was not effective in inducing apoptosis after 4 h of treatment (Figure 14B).

HL-60 = assay: Cytotoxicity assay (resazurin), HL-60; assay type: cell-based; details: Homo sapiens, 72 h, three independent experiments, range 0.1 to 25 µM
Method: as §3

BTK = target: T3, BTK (Homo sapiens, UniProt Q06187); assay: Recombinant kinase radioassay, BTK; assay type: biochemical; details: recombinant kinase, radioassay, ATP 15 µM; at least three independent experiments, range 0.01–100 µM; read-out: IC50 BTK
T3 construct: purchased ProQinase
Method: as §1

FLT3-ITD [4] = target: T4, FLT3-ITD (Homo sapiens, UniProt P36888, ITD); assay: Recombinant kinase radioassay, FLT3-ITD; assay type: biochemical; details: recombinant kinase, radioassay; at least three independent experiments, range 0.01–100 µM; read-out: IC50 FLT3-ITD
T4 sequence (P36888 27-993): T1 sequence (P36888 27-993)
Method: as §1

[5] = system: FLT3-ITD signalling in MV4-11 cells; assay: Immunoblotting of FLT3-ITD-dependent pathway in MV4-11; assay type: cell-based; details: 4 h
Method: as §4, §5

MV4-11 cells = assay: Flow cytometry cell cycle, MV4-11; assay type: cell-based; details: 24 h, sub-micromolar concentrations
Method: as §2

[6] = system: caspase 3/7 activity in MV4-11 cells; assay: Caspase-3/7 assay, MV4-11; assay type: cell-based; details: 24 h
Method: as §6

[7] = system: PARP-1 cleavage in MV4-11; assay: Immunoblotting of PARP-1 cleavage, MV4-11; assay type: cell-based; details: MV4-11 cells, 4 h
Method: as §4, with “Anti-α-tubulin (clone DM1A) was purchased from Sigma Aldrich.” left out
as §7

[8] = system: BTK signalling in Ramos cells; assay: Immunoblotting of BTK signalling in anti-IgM-stimulated Ramos; assay type: cell-based; details: immunoglobulin M-activated Ramos cells, 4 h, dose-dependent
Method: as §4, §5

T3 sequence (Q06187 whole entry): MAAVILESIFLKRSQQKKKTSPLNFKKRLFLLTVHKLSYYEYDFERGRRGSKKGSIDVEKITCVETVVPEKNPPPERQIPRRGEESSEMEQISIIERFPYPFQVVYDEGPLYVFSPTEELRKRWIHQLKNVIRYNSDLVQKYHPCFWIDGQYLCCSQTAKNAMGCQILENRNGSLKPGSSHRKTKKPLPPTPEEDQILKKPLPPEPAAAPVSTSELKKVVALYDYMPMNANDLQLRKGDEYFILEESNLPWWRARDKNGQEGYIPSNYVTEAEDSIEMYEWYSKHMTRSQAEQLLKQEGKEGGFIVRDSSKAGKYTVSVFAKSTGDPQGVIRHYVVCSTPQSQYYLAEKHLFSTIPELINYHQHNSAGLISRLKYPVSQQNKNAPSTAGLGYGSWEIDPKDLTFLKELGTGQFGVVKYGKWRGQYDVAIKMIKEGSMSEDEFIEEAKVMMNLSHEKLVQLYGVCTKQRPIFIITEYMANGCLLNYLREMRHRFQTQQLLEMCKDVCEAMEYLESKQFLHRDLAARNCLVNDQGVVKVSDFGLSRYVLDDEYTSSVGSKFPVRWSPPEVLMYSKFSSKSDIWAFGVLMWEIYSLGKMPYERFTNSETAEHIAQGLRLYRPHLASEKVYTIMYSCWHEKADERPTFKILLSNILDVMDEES
Bcr-Abl1, sequence (P00519 27-1130): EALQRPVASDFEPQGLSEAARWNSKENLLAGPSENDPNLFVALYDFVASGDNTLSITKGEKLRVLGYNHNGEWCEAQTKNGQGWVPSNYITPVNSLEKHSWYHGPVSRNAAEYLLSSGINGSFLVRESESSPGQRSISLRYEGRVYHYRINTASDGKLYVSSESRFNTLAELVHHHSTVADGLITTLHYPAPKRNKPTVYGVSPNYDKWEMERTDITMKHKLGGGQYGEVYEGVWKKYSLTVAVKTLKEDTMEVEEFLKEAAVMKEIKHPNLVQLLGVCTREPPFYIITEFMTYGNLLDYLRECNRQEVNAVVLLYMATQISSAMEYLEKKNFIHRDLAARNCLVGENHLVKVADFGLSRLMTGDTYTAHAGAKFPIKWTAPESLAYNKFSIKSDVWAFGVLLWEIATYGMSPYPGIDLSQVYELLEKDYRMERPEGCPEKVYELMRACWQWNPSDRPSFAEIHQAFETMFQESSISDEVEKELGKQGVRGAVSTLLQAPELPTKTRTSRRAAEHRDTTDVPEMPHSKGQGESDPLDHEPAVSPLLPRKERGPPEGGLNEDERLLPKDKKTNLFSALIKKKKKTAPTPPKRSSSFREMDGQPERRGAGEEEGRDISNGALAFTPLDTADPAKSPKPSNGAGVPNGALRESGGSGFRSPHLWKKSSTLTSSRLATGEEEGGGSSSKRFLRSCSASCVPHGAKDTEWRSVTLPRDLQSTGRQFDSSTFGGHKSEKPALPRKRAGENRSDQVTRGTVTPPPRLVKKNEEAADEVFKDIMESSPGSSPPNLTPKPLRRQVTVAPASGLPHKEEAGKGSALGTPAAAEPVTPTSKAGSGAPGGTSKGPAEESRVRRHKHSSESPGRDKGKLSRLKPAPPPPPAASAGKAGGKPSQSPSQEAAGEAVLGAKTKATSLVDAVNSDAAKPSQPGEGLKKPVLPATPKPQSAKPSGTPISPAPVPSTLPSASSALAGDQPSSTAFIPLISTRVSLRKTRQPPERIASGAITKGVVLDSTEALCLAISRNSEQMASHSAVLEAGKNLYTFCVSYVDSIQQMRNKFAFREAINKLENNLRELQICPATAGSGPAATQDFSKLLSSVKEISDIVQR

IC50 (Bcr-Abl1) | IC50 (Cdk-2/cyclin E) | IC50 (BTK) | IC50 (FLT3-ITD [4]) | melting point | SMILES | GI50 (Ramos) | GI50 (MV4-11) | GI50 (CEM) | GI50 (K562) | GI50 (HL-60) | other results
– | – | – | – | – | NC1CCC(Nc2nc(Nc3ccc(CN4CCOCC4)cc3)c3ncn(C4CCCC4)c3n2)CC1 (stereo not shown) [II] | – | – | – | – | – | IC50 (FLT3-ITD [1]): 2 nM
100 ± 30 nM | 10800 ± 1600 nM | 910 ± 190 nM | 370 nM | – | CN1CCN(c2ccc(Nc3nc(Nc4ccc(C#N)cc4)c4ncn(CC5CC5)c4n3)cc2)CC1 [Compound 4i, 4-((9-(Cyclopropylmethyl)-2-((4-(4-methylpiperazin-1-yl)phenyl)amino)-9H-purin-6-yl)amino)benzonitrile] | 1490 ± 50 nM | 890 ± 70 nM | 1850 ± 100 nM | 1030 ± 210 nM | 3170 ± 570 nM | Cell cycle effect (K562 cells): effectively induced G1 arrest; Concentration from which autophosphorylation of Bcr (pBcr) is inhibited [2]: ≥ 0.08 µM; Level of phosphorylated STAT5 (pSTAT5) and CrkL (pCrkL) [2]: dose-dependently decreased; Relative caspase 3/7 activity [3]: nearly five-fold increase; 89 kDa fragment of PARP-1 (PARP-1 cleavage in K562): increased levels
940 ± 220 nM | 14200 ± 1240 nM | 2730 ± 170 nM | 1810 nM | 142 to 143 °C | CN1CCN(C(=O)c2ccc(Nc3nc(Nc4ccc(F)c(F)c4)c4ncn(CC5CC5)c4n3)cc2)CC1 [Compound 8c, (4-((9-(Cyclopropylmethyl)-6-((3,4-difluorophenyl)amino)-9H-purin-2-yl)amino)phenyl)(4-methylpiperazin-1-yl)methanone] | 14690 ± 20 nM | 1520 ± 310 nM | 20700 ± 4070 nM | 6070 ± 80 nM | 2390 ± 890 nM | –
> 50000 nM | 21100 ± 1910 nM | 3780 ± 860 nM | 380 nM | – | CC(C)CCn1cnc2c(Nc3cccc(F)c3)nc(Nc3ccc(N4CCN(C)CC4)cc3)nc21 [Compound 5b, N^6-(3-Fluorophenyl)-9-isopentyl-N^2-(4-(4-methylpiperazin-1-yl)phenyl)-9H-purine-2,6-diamine] | 18700 ± 3100 nM | 2890 ± 950 nM | > 25000 nM | 18600 ± 3730 nM | 2040 ± 580 nM | Phosphorylation of STAT5 [5]: inhibited; Autophosphorylation of the oncogenic FLT3-ITD ([5]; increasing concentrations): clear suppression; Cell cycle effect (MV4-11 cells): effectively induced G1 arrest; Caspase 3/7 induction [6]: a higher concentration of 5b was required for caspase induction; PARP-1 fragment [7]: not detected
> 100000 nM | 19000 ± 1550 nM | < 580 nM and 410 nM | 20300 nM | 171.3 to 173.5 °C | CCCCCCCCn1cnc2c(Nc3ccccc3)nc(Nc3ccc(N4CCN(C)CC4)cc3)nc21 [Compound 5j, N^2-(4-(4-Methylpiperazin-1-yl)phenyl)-9-octyl-N^6-phenyl-9H-purine-2,6-diamine] | 14200 ± 2610 nM | 4450 ± 1480 nM | 23600 ± 2010 nM | 8190 ± 60 nM | 1250 ± 110 nM | Levels of phosphorylated BTK and downstream targets PLCγ2 and Akt [8]: decreased
650 ± 70 nM | 19000 ± 8980 nM | < 580 nM and 360 nM | 500 nM | 147.1 to 149.3 °C | CCCCCn1cnc2c(Nc3cccc(F)c3)nc(Nc3ccc(N4CCN(C)CC4)cc3)nc21 [Compound 5e, N^6-(3-Fluorophenyl)-N^2-(4-(4-methylpiperazin-1-yl)phenyl)-9-pentyl-9H-purine-2,6-diamine] | 11600 ± 1460 nM | 1310 ± 710 nM | 19000 ± 3890 nM | 2140 ± 800 nM | 1310 nM | –
440 ± 120 nM | 12600 ± 2120 nM | 5030 ± 990 nM | 2670 nM | 144 to 145 °C | CN1CCN(c2ccc(Nc3nc(Nc4ccc(OC(F)(F)F)c([N+](=O)[O-])c4)c4ncn(CC5CC5)c4n3)cc2)CC1 [Compound 4o, 9-(Cyclopropylmethyl)-N^2-(4-(4-methylpiperazin-1-yl)phenyl)-N^6-(3-nitro-4-(trifluoromethoxy)phenyl)-9H-purine-2,6-diamine] | 4460 ± 380 nM | 1490 ± 330 nM | 14800 ± 1320 nM | 2600 ± 1250 nM | 1680 ± 10 nM | –
